# What was measured:
# mongrel cats = experiment: Inotropic and heart-circulatory effectiveness on narcotised cats, intravenous; assay type: in vivo, cat; settings: 6 animals
# [1] = Acute toxicity, intravenous, mice; assay type: in vivo; settings: mouse, in vivo; intravenous, within 24 hours; read-out: Evaluated LD50-range
# female NMRI-albino mice = experiment: Acute toxicity, intravenous, mice; assay type: in vivo; settings: within 24 hours
# [2] = test system: isolated guinea pig hearts; experiment: Experiments on Langendorff hearts (coronary flowthrough, inotropism, frequency); settings: Cavia porcellus, read-out: flowthrough, percentage change with regard to the initial value
# Description: After reaching the stationary state in the 30th minute, the hearts were each perfused with 50 ml. tyrode solution with a content of test substance of, in each case, 25 μg./ml. Each test substance was tested on 3-6 hearts.
# In each case, there was measured the inotropism, the flowthrough and the frequency, whereby the values given in Table I are average values of the percentage changes in comparison with the initial values.
# narcotised guinea pigs = experiment: Blood pressure experiments on guinea pigs, i.v.; assay type: in vivo, guinea pig; settings: for blood pressure before: before administration
# [3] = 0.25 mg/kg i.v., before administration
compound,measurement,setting,value
"O=[N+]([O-])O[C@H]1CO[C@H]2[C@@H]1OC[C@@H]2NCCCc1ccccc1 [Example 28, 5-(3-Phenylpropylamino)-5-desoxy-1.4;3.6-dianhydro-L-iditol 2-nitrate]",blood pressure before,mongrel cats; [3],101.3 mm.Hg
same,dp/dt (inotropism) before,mongrel cats; [3],7667 mm.Hg/sec
same,heart frequency before,mongrel cats; [3],225.0 min⁻¹
same,blood pressure WD,mongrel cats; 0.25 mg/kg i.v.,3.1 min
same,blood pressure after,mongrel cats; 0.25 mg/kg i.v.,81.8 mm.Hg
same,blood pressure Δ,mongrel cats; 0.25 mg/kg i.v.,-19.5 mm.Hg
same,dp/dt (inotropism) after,mongrel cats; 0.25 mg/kg i.v.,7400 mm.Hg/sec
same,dp/dt (inotropism) Δ,mongrel cats; 0.25 mg/kg i.v.,-267 mm.Hg/sec
same,dp/dt WD,mongrel cats; 0.25 mg/kg i.v.,2.7 min
same,heart frequency after,mongrel cats; 0.25 mg/kg i.v.,223.3 min⁻¹
same,heart frequency Δ,mongrel cats; 0.25 mg/kg i.v.,-1.7 min⁻¹
same,blood pressure WD,mongrel cats; 0.50 mg/kg i.v.,5.8 min
same,blood pressure after,mongrel cats; 0.50 mg/kg i.v.,79.0 mm.Hg
same,blood pressure Δ,mongrel cats; 0.50 mg/kg i.v.,-25.9 mm.Hg
same,dp/dt (inotropism) after,mongrel cats; 0.50 mg/kg i.v.,6567 mm.Hg/sec
same,dp/dt (inotropism) Δ,mongrel cats; 0.50 mg/kg i.v.,-1000 mm.Hg/sec
same,dp/dt WD,mongrel cats; 0.50 mg/kg i.v.,10.7 min
same,heart frequency after,mongrel cats; 0.50 mg/kg i.v.,226.3 min⁻¹
same,heart frequency Δ,mongrel cats; 0.50 mg/kg i.v.,-1.7 min⁻¹
same,blood pressure WD,mongrel cats; 1.00 mg/kg i.v.,12.2 min
same,blood pressure after,mongrel cats; 1.00 mg/kg i.v.,70.0 mm.Hg
same,blood pressure Δ,mongrel cats; 1.00 mg/kg i.v.,-39.7 mm.Hg
same,dp/dt (inotropism) after,mongrel cats; 1.00 mg/kg i.v.,5533 mm.Hg/sec
same,dp/dt (inotropism) Δ,mongrel cats; 1.00 mg/kg i.v.,-1534 mm.Hg/sec
same,dp/dt WD,mongrel cats; 1.00 mg/kg i.v.,23.0 min
same,heart frequency after,mongrel cats; 1.00 mg/kg i.v.,227.0 min⁻¹
same,heart frequency Δ,mongrel cats; 1.00 mg/kg i.v.,-1.0 min⁻¹
same,blood pressure WD,mongrel cats; 2.50 mg/kg i.v.,> 10 min
same,blood pressure after,mongrel cats; 2.50 mg/kg i.v.,53.2 mm.Hg
same,blood pressure Δ,mongrel cats; 2.50 mg/kg i.v.,-50.3 mm.Hg
same,dp/dt (inotropism) after,mongrel cats; 2.50 mg/kg i.v.,3600 mm.Hg/sec
same,dp/dt (inotropism) Δ,mongrel cats; 2.50 mg/kg i.v.,-3067 mm.Hg/sec
same,dp/dt WD,mongrel cats; 2.50 mg/kg i.v.,> 10 min
same,heart frequency after,mongrel cats; 2.50 mg/kg i.v.,206.3 min⁻¹
same,heart frequency Δ,mongrel cats; 2.50 mg/kg i.v.,-22.0 min⁻¹
same,LD50 at 24 h,[1],50 to 100 mg/kg
same,Frequency of death,female NMRI-albino mice; 50 mg/kg i.v.,0/10
same,Frequency of death,female NMRI-albino mice; 100 mg/kg i.v.,5/6
same,Frequency of death,female NMRI-albino mice; 200 mg/kg i.v.,3/3
same,activation at 25 µg/mL,[2],68.1%
O=[N+]([O-])O[C@H]1CO[C@H]2[C@@H]1OC[C@@H]2N1CCCCC1 [15 b],blood pressure after,narcotised guinea pigs; 0.25 mg/kg i.v.,63.00 ± 1.83 mm.Hg
same,blood pressure Δ,narcotised guinea pigs; 0.25 mg/kg i.v.,-9.00 mm.Hg
same,blood pressure before,narcotised guinea pigs; 0.25 mg/kg i.v.,72.00 ± 2.12 mm.Hg
same,blood pressure after,narcotised guinea pigs; 1.00 mg/kg i.v.,53.50 ± 1.71 mm.Hg
same,blood pressure Δ,narcotised guinea pigs; 1.00 mg/kg i.v.,-17.75 mm.Hg
same,blood pressure after,narcotised guinea pigs; 2.50 mg/kg i.v.,49.00 ± 2.48 mm.Hg
same,blood pressure Δ,narcotised guinea pigs; 2.50 mg/kg i.v.,-23.00 mm.Hg
same,LD50 at 24 h,[1],50 to 100 mg/kg
same,Frequency of death,female NMRI-albino mice; 50 mg/kg i.v.,0/3
same,Frequency of death,female NMRI-albino mice; 100 mg/kg i.v.,2/3
same,Frequency of death,female NMRI-albino mice; 200 mg/kg i.v.,6/6
same,activation at 25 µg/mL,[2],34%
"CN(Cc1ccccc1)[C@H]1CO[C@H]2[C@@H]1OC[C@@H]2O[N+](=O)[O-] [Example 19, 5-(N-Benzyl-N-methylamino)-5-desoxy-1.4;3.6-dianhydro-L-iditol 2-nitrate]",LD50 at 24 h,[1],100 to 200 mg/kg
same,Frequency of death,female NMRI-albino mice; 100 mg/kg i.v.,0/3
same,Frequency of death,female NMRI-albino mice; 200 mg/kg i.v.,6/6
same,activation at 25 µg/mL,[2],100%
CN1CCN([C@H]2CO[C@H]3[C@@H]2OC[C@@H]3O[N+](=O)[O-])CC1 [17 b],blood pressure after,narcotised guinea pigs; 0.25 mg/kg i.v.,59.00 ± 2.27 mm.Hg
same,blood pressure Δ,narcotised guinea pigs; 0.25 mg/kg i.v.,-4.50 mm.Hg
same,blood pressure before,narcotised guinea pigs; 0.25 mg/kg i.v.,63.50 ± 3.77 mm.Hg
same,blood pressure after,narcotised guinea pigs; 1.00 mg/kg i.v.,46.25 ± 3.07 mm.Hg
same,blood pressure Δ,narcotised guinea pigs; 1.00 mg/kg i.v.,-17.75 mm.Hg
same,blood pressure after,narcotised guinea pigs; 2.50 mg/kg i.v.,38.25 ± 4.55 mm.Hg
same,blood pressure Δ,narcotised guinea pigs; 2.50 mg/kg i.v.,-23.50 mm.Hg
same,LD50 at 24 h,[1],> 200 mg/kg
same,Frequency of death,female NMRI-albino mice; 200 mg/kg i.v.,0/3
same,activation at 25 µg/mL,[2],25.1%
O=[N+]([O-])O[C@H]1CO[C@H]2[C@@H]1OC[C@@H]2N1CCOCC1 [16 b],blood pressure after,narcotised guinea pigs; 0.25 mg/kg i.v.,59.50 ± 5.63 mm.Hg
same,blood pressure Δ,narcotised guinea pigs; 0.25 mg/kg i.v.,-9.25 mm.Hg
same,blood pressure before,narcotised guinea pigs; 0.25 mg/kg i.v.,68.75 ± 3.07 mm.Hg
same,blood pressure after,narcotised guinea pigs; 1.00 mg/kg i.v.,48.25 ± 4.80 mm.Hg
same,blood pressure Δ,narcotised guinea pigs; 1.00 mg/kg i.v.,-19.75 mm.Hg
same,blood pressure after,narcotised guinea pigs; 2.50 mg/kg i.v.,43.25 ± 4.91 mm.Hg
same,blood pressure Δ,narcotised guinea pigs; 2.50 mg/kg i.v.,-23.50 mm.Hg
same,LD50 at 24 h,[1],> 200 mg/kg
same,Frequency of death,female NMRI-albino mice; 200 mg/kg i.v.,0/3
same,activation at 25 µg/mL,[2],14.7%
"CN(CCCc1ccccc1)[C@H]1CO[C@H]2[C@@H]1OC[C@@H]2O[N+](=O)[O-] [Example 21, 5-[N-Methyl-N-(3-phenylpropyl)-amino]-5-desoxy-1.4;3.6-dianhydro-L-iditol 2-nitrate]",LD50 at 24 h,[1],50 to 100 mg/kg
same,Frequency of death,female NMRI-albino mice; 50 mg/kg i.v.,0/3
same,Frequency of death,female NMRI-albino mice; 100 mg/kg i.v.,3/3
same,Frequency of death,female NMRI-albino mice; 200 mg/kg i.v.,6/6
same,activation at 25 µg/mL,[2],117%
